Laboratory results published in ChEMBL document CHEMBL1128897, “Bivalent indoles exhibiting serotonergic binding affinity” (Bioorg Med Chem Lett, 1995).

How the values were obtained:
[1] = target: Sodium-dependent serotonin transporter (Rattus norvegicus, UniProt P31652); experiment: Ability to inhibit Serotonin transporter
[2] = target: 5-hydroxytryptamine receptor 1E (Homo sapiens, UniProt P28566); experiment: Inhibitory activity against 5-hydroxytryptamine 1E receptor subtype
[3] = target: T1, 5-hydroxytryptamine receptor 1A (Rattus norvegicus, UniProt P19327); experiment: Inhibitory activity against 5-hydroxytryptamine 1A receptor subtype
T1 sequence (P19327 whole entry): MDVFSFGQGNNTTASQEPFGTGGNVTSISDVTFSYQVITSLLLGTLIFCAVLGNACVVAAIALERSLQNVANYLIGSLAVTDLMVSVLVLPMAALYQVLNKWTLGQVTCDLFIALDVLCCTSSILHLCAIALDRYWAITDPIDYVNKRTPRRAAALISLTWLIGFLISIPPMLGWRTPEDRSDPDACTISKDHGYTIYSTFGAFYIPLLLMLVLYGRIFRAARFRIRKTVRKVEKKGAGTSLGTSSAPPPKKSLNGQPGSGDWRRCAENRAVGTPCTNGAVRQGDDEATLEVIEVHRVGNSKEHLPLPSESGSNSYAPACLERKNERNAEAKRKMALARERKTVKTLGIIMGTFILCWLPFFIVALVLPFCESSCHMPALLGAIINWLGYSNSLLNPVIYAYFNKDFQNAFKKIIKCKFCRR

Sodium-dependent serotonin transporter, sequence (P31652 whole entry): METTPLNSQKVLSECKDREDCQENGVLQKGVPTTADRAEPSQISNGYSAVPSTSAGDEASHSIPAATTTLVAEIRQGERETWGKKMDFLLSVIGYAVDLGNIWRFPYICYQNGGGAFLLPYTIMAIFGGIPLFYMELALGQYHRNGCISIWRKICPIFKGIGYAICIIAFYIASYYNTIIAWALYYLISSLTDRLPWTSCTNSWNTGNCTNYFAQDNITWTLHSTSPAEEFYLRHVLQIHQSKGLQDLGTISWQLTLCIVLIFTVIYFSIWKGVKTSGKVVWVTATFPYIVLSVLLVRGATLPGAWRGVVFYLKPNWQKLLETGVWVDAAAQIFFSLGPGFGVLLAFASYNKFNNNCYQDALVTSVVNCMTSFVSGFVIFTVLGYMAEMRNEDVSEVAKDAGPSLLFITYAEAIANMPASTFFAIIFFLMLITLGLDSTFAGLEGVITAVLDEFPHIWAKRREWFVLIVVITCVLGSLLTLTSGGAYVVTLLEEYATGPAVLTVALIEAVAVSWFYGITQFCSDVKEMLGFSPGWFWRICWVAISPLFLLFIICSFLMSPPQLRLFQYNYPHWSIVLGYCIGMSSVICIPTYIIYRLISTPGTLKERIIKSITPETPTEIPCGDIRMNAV
5-hydroxytryptamine receptor 1E, sequence (P28566 whole entry): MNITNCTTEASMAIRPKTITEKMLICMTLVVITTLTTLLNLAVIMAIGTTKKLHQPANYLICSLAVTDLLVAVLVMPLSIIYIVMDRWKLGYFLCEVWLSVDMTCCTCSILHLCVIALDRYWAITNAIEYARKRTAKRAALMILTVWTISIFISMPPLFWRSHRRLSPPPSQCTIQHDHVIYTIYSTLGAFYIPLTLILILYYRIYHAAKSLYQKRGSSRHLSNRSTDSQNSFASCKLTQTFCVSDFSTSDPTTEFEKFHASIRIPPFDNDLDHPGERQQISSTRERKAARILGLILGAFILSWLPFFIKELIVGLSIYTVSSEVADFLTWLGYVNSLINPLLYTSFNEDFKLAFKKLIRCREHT

IC50 [1]	IC50 [2]	IC50 [3]	Compound
47.5 nM	> 1000 nM	2.86 nM	NC(=O)c1ccc2[nH]cc(C3=CCC(NCCCCCNC4CC=C(c5c[nH]c6ccc(C(N)=O)cc56)CC4)CC3)c2c1 (centres undefined)
33.9 nM	> 1000 nM	2.27 nM	NC(=O)c1ccc2[nH]cc(C3=CCC(NCCCCCCNC4CC=C(c5c[nH]c6ccc(C(N)=O)cc56)CC4)CC3)c2c1 (centres undefined)
12.6 nM	> 1000 nM	2 nM	NC(=O)c1ccc2[nH]cc(C3=CCC(NCCNC4CC=C(c5c[nH]c6ccc(C(N)=O)cc56)CC4)CC3)c2c1 (centres undefined)
17.7 nM	99 nM	1.83 nM	NC(=O)c1ccc2[nH]cc(C3=CCC(NCCCCCCCNC4CC=C(c5c[nH]c6ccc(C(N)=O)cc56)CC4)CC3)c2c1 (centres undefined)
–	–	0.13 nM	NC(=O)c1ccc2[nH]cc(C3=CCC(NCCCCCCCCCCCCNC4CC=C(c5c[nH]c6ccc(C(N)=O)cc56)CC4)CC3)c2c1 (centres undefined)
12.4 nM	392 nM	2.13 nM	NC(=O)c1ccc2[nH]cc(C3=CCC(NCCCCCCCCNC4CC=C(c5c[nH]c6ccc(C(N)=O)cc56)CC4)CC3)c2c1 (centres undefined)
47.8 nM	> 1000 nM	14.5 nM	NC(=O)c1ccc2[nH]cc(C3=CCC(NCCCCNC4CC=C(c5c[nH]c6ccc(C(N)=O)cc56)CC4)CC3)c2c1 (centres undefined)
–	> 1000 nM	18 nM	NC(=O)c1ccc2[nH]cc(C3=CCC(NCCCNC4CC=C(c5c[nH]c6ccc(C(N)=O)cc56)CC4)CC3)c2c1 (centres undefined)
–	> 1000 nM	0.22 nM	NC(=O)c1ccc2[nH]cc(C3=CCC(NCCCCCCCCCCNC4CC=C(c5c[nH]c6ccc(C(N)=O)cc56)CC4)CC3)c2c1 (centres undefined)
–	–	1.27 nM	CCCCCCCNC1CC=C(c2c[nH]c3ccc(C(N)=O)cc23)CC1 (centres undefined)
